{"source": "patent US11492405B2", "about": "“Reducing systemic regulatory t cell levels or activity for treatment of disease and injury of the CNS” (Yeda Research and Development Co. Ltd, priority 2014, dated 2022)", "key": {"[1]": {"tested_on": "5XFAD AD-Tg mice", "test": "GFAP immunostaining (hippocampal astrogliosis) in 5XFAD AD-Tg mice", "format": "in vivo, mouse", "conditions": "AD-Tg/Foxp3-DTR+ mice, 3 weeks after last DTx injection", "protocol": "Tissue processing and immunohistochemistry were performed on paraffin embedded sectioned mouse (6 μm thick) and human (10 μm thick) brains. For human ICAM-1 staining, primary mouse anti-ICAM (1:20 Abcam; ab2213) antibody was used. Slides were incubated for 10 min with 3% H2O2, and a secondary biotin-conjugated anti-mouse antibody was used, followed by biotin/avidin amplification with Vectastain ABC kit (Vector Laboratories). Subsequently, 3,3′-diaminobenzidine (DAB substrate) (Zytomed kit) was applied; slides were dehydrated and mounted with xylene-based mounting solution. For tissue stainings, mice were transcardially perfused with PBS prior to tissue excision and fixation. CP tissues were isolated under a dissecting microscope (Stemi DV4; Zeiss) from the lateral, third, and fourth ventricles of the brain. […] Microscopic analysis, was performed using a fluorescence microscope (E800; Nikon) or laser-scanning confocal microscope (Carl Zeiss, Inc.). The fluorescence microscope was equipped with a digital camera (DXM 1200F; Nikon), and with either a 20×NA 0.50 or 40×NA 0.75 objective lens (Plan Fluor; Nikon). […] For quantification of staining intensity, total cell and background staining was measured using ImageJ software (NIH), and intensity of specific staining was calculated, as previously described (Burgess et al, 2010). […]"}, "[2]": {"tested_on": "Foxp3+ Tregs", "test": "Conditional ablation of Treg by DTx, flow cytometry of blood and spleen", "format": "in vivo, mouse", "protocol": "Mice were transcardially perfused with PBS, and tissues were treated as previously described (Baruch et al, 2013). Brains were dissected and the different brain regions were removed under a dissecting microscope (Stemi DV4; Zeiss) in PBS, and tissues were dissociated using the gentleMACS™ dissociator (Miltenyi Biotec). Choroid plexus tissues were isolated from the lateral, third and fourth ventricles of the brain, incubated at 37° C. for 45 min in PBS (with Ca^2+/Mg^2+) containing 400 U/ml collagenase type IV (Worthington Biochemical Corporation), and then manually homogenized by pipetting. Spleens were mashed with the plunger of a syringe and treated with ACK (ammonium chloride potassium) lysing buffer to remove erythrocytes. In all cases, samples were stained according to the manufacturers' protocols. All samples were filtered through a 70 μm nylon mesh, and blocked with anti-Fc CD16/32 (1:100; BD Biosciences). For intracellular staining of IFN-γ, the cells were incubated with […] (10 ng/ml; Sigma-Aldrich) and ionomycin (250 ng/ml; Sigma-Aldrich) for 6 h, and Brefeldin-A (10 μg/ml; Sigma-Aldrich) was added for the last 4 h. Intracellular labeling of cytokines was done with BD Cytofix/Cytoperm™ Plus fixation/permeabilization kit (cat. no. 555028). […] Cells were analyzed on an LSRII cytometer (BD Biosciences) using FlowJo software. […]"}}, "note": "Entries after “also recorded” stand apart in the source; their conditions may differ."}
{"substance": "Diphtheria toxin [DTx]", "values": [{"measurement": "hippocampal gliosis (GFAP immunostaining)", "setting": "[1]", "value": "reduced astrogliosis; also recorded: reduction in hippocampal gliosis"}, {"measurement": "depletion of GFP-expressing FoxP3+CD4+ Treg cells", "setting": "[2]; blood and spleen, Foxp3.LuciDTR mice, DTx 8 ng/g i.p. daily for 4 days", "value": "> 99", "unit": "%"}, {"measurement": "depletion of Foxp3+ cells", "setting": "[2]; splenocytes of AD-Tg/Foxp3-DTR+/− mice, 1 day after last of 4 daily i.p. DTx injections", "value": "~99", "unit": "%"}]}
